According to patent publication US20250201546A1, “METHOD FOR PROCESSING SUBSTRATE, KIT FOR PROCESSING SUBSTRATE, AND METHOD FOR MANUFACTURING SEMICONDUCTOR SUBSTRATE” (TOKYO OHKA KOGYO CO., LTD., priority 2023, published 2025):

Assay: Hansen solubility parameter (SP value and terms) of reagents
Format: physicochemical
Design: unit: MPa^0.5
Conditions: SP^2=δD^2+δP^2+δH^2
From the text: The SP value of Hansen solubility parameter herein is a value obtained by dividing the solubility parameter introduced by Hildebrand into three parameters, the dispersion term OD, the polarity term OP, and the hydrogen bond term OH, and plotting a point in a three-dimensional space (Hansen space, HSP space).
The dispersion term δD represents the effect due to dispersion force, the polarity term δP represents the effect due to dipole-dipole force, and the hydrogen bond term OH represents the effect due to hydrogen bond force. […]
δD: The energy derived from dispersion forces between molecules (the dispersion term) δP: The energy derived from polar forces between molecules (the polarity term) δH: The energy derived from hydrogen bond forces between molecules (the hydrogen bond term) The unit of each of the terms is MPa^0.5.
There is a relationship between Hildebrand's SP value and Hansen's HSP as shown below.
(Hildebrand's SP)^2=δD^2+δP^2+δH^2
Suitable examples of the silane coupling agent having a SP value of 15 or more may include the followings. Needless to say, the silane coupling agent used in the present embodiment is not limited to those below.

Compared with `CO[Si](CCCNCCCCCCN)(OC)OC` [AHAPTMS, 3-(6-aminohexylamino) propyltrimethoxysilane], `CO[Si](CCCNCCN)(OC)OC` [AEAPTMS, 3-(2-aminoethylamino) propyltrimethoxysilane] is higher in SP value: 15.3 for the first, 16.2 for the second.

Going from `CO[Si](CCCN)(OC)OC` [APTMS, 3-aminopropyltrimethoxysilane] to `CCO[Si](CCCN)(OCC)OCC` [APTES, 3-aminopropyltriethoxysilane], the SP value falls from 15.8 to 15.2.

Compared with `CCO[Si](CCCNCCN)(OCC)OCC` [AEAPTES, 3-(2-aminoethylamino) propyltriethoxysilane], `CO[Si](C)(OC)OC` [MTMS, methyltrimethoxysilane] is lower in SP value: 15.6 for the first, 15.2 for the second.
